Measurements as given in PubChem BioAssay AID1963958 (Molecular Pharmacology Branch, DTP, NCI, 2024).
pIC50: −log10 of the molar value.

Test system: MDA-MB-231 multicell spheroids, viability
Experiment: Anticancer human tumor MDA-MB-231 cell line growth inhibition [PI3K];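 also: spheroids exposed to agents for seven days before reading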;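 as to viability, T/C: percent of vehicle control luminescence with DMSO treated spheroids as 100%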
Conditions: for pIC50: curve of first compound; for viability, T/C: stronger effect = lower value
Summary of the method: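 Agents were dosed from a top concentration near clinical Cmax (otherwise 10 microM) in half-log decrements, alone or combined with PI3K inhibitors. The spheroids contain tumor cells plus endothelial (HUVEC) and MSC stroma; viability is measured.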

[1] = second compound 0.00316 µM, first compound 0.0316 µM
[2] = second compound 0.00316 µM, first compound 0.1 µM
[3] = second compound 0.00316 µM, first compound 0.316 µM
[4] = second compound 0.00316 µM, first compound 1 µM
[5] = second compound 0.00316 µM, first compound 3.16 µM
[6] = second compound 0.00316 µM, first compound 10 µM
[7] = second compound 0.01 µM, first compound 0.0316 µM
[8] = second compound 0.01 µM, first compound 0.1 µM
[9] = second compound 0.01 µM, first compound 0.316 µM
[10] = second compound 0.01 µM, first compound 1 µM
[11] = second compound 0.01 µM, first compound 3.16 µM
[12] = second compound 0.01 µM, first compound 10 µM
[13] = second compound 0.0316 µM, first compound 0.0316 µM
[14] = second compound 0.0316 µM, first compound 0.1 µM
[15] = second compound 0.0316 µM, first compound 0.316 µM
[16] = second compound 0.0316 µM, first compound 1 µM
[17] = second compound 0.0316 µM, first compound 3.16 µM
[18] = second compound 0.0316 µM, first compound 10 µM
[19] = second compound 0.1 µM, first compound 0.0316 µM
[20] = second compound 0.1 µM, first compound 0.1 µM
[21] = second compound 0.1 µM, first compound 0.316 µM
[22] = second compound 0.1 µM, first compound 1 µM
[23] = second compound 0.1 µM, first compound 3.16 µM
[24] = second compound 0.1 µM, first compound 10 µM
[25] = second compound 0.316 µM, first compound 0.0316 µM
[26] = second compound 0.316 µM, first compound 0.1 µM
[27] = second compound 0.316 µM, first compound 0.316 µM
[28] = second compound 0.316 µM, first compound 1 µM
[29] = second compound 0.316 µM, first compound 3.16 µM
[30] = second compound 0.316 µM, first compound 10 µM
[31] = second compound 1 µM, first compound 0.0316 µM
[32] = second compound 1 µM, first compound 0.1 µM
[33] = second compound 1 µM, first compound 0.316 µM
[34] = second compound 1 µM, first compound 1 µM
[35] = second compound 1 µM, first compound 3.16 µM
[36] = second compound 1 µM, first compound 10 µM

C#Cc1c(F)ccc2cc(O)cc(-c3ncc4c(N5CC6CCC(C5)N6)nc(OCC56CCCN5CC(F)C6)nc4c3F)c12 (stereo unspecified) + CC(Nc1ccc2c(c1)OCCn1cc(N3C(=O)OCC3C(F)F)nc1-2)C(N)=O
pIC50 (second compound 0.00316 µM): 5.03
pIC50 (second compound 0.01 µM): 5.08
pIC50 (second compound 0.0316 µM): 5.33
pIC50 (second compound 0.1 µM): 5.47
pIC50 (second compound 0.316 µM): 5.81
pIC50 (second compound 1 µM): 5.97
viability, T/C [1]: 103%
viability, T/C [2]: 99%
viability, T/C [3]: 96.1%
viability, T/C [4]: 86.7%
viability, T/C [5]: 69.8%
viability, T/C [6]: 48.6%
viability, T/C [7]: 94%
viability, T/C [8]: 94.8%
viability, T/C [9]: 87.6%
viability, T/C [10]: 78.3%
viability, T/C [11]: 63.9%
viability, T/C [12]: 47.4%
viability, T/C [13]: 74.2%
viability, T/C [14]: 83.1%
viability, T/C [15]: 74.4%
viability, T/C [16]: 61.4%
viability, T/C [17]: 56.7%
viability, T/C [18]: 41.8%
viability, T/C [19]: 70.3%
viability, T/C [20]: 65.3%
viability, T/C [21]: 64.5%
viability, T/C [22]: 56.8%
viability, T/C [23]: 53.7%
viability, T/C [24]: 35.5%
viability, T/C [25]: 67.6%
viability, T/C [26]: 67.1%
viability, T/C [27]: 58.8%
viability, T/C [28]: 54.2%
viability, T/C [29]: 44%
viability, T/C [30]: 33.4%
viability, T/C [31]: 60.7%
viability, T/C [32]: 54.4%
viability, T/C [33]: 55.4%
viability, T/C [34]: 51.4%
viability, T/C [35]: 41.5%
viability, T/C [36]: 28%

CC(Cn1ccc(-c2ccc(C#N)c(Cl)c2)n1)NC(=O)c1cc(C(C)O)[nH]n1 (stereo unspecified) + CC(Nc1ccc2c(c1)OCCn1cc(N3C(=O)OCC3C(F)F)nc1-2)C(N)=O
pIC50 (second compound 0.00316 µM): < 5.00
pIC50 (second compound 0.01 µM): < 5.00
pIC50 (second compound 0.0316 µM): < 5.00
pIC50 (second compound 0.1 µM): < 5.00
pIC50 (second compound 0.316 µM): < 5.00
pIC50 (second compound 1 µM): < 5.00
viability, T/C [1]: 102%
viability, T/C [2]: 95.6%
viability, T/C [3]: 104%
viability, T/C [4]: 95%
viability, T/C [5]: 96.5%
viability, T/C [6]: 88.1%
viability, T/C [7]: 96%
viability, T/C [8]: 97.5%
viability, T/C [9]: 91.8%
viability, T/C [10]: 94.6%
viability, T/C [11]: 84.4%
viability, T/C [12]: 77%
viability, T/C [13]: 83.2%
viability, T/C [14]: 81.7%
viability, T/C [15]: 82.4%
viability, T/C [16]: 77%
viability, T/C [17]: 74.3%
viability, T/C [18]: 64%
viability, T/C [19]: 80.1%
viability, T/C [20]: 69.6%
viability, T/C [21]: 72%
viability, T/C [22]: 69.9%
viability, T/C [23]: 64.8%
viability, T/C [24]: 50.3%
viability, T/C [25]: 63.5%
viability, T/C [26]: 63.3%
viability, T/C [27]: 65.1%
viability, T/C [28]: 61.2%
viability, T/C [29]: 60.8%
viability, T/C [30]: 53.6%
viability, T/C [31]: 66%
viability, T/C [32]: 56.3%
viability, T/C [33]: 64.5%
viability, T/C [34]: 60.2%
viability, T/C [35]: 56.1%
viability, T/C [36]: 48.8%

CC1(C)CCC(Nc2ncc(C(F)(F)F)c(-c3c[nH]c4c(P(C)(C)=O)c(C#N)ccc34)n2)CN1 (stereo unspecified) + CC(Nc1ccc2c(c1)OCCn1cc(N3C(=O)OCC3C(F)F)nc1-2)C(N)=O
pIC50 (second compound 0.00316 µM): > 7.50
pIC50 (second compound 0.01 µM): > 7.50
pIC50 (second compound 0.0316 µM): > 7.50
pIC50 (second compound 0.1 µM): > 7.50
pIC50 (second compound 0.316 µM): > 7.50
pIC50 (second compound 1 µM): > 7.50
viability, T/C [1]: 47.2%
viability, T/C [2]: 47.7%
viability, T/C [3]: 42.2%
viability, T/C [4]: 48.2%
viability, T/C [5]: 47.4%
viability, T/C [6]: 4.16%
viability, T/C [7]: 48.4%
viability, T/C [8]: 44.9%
viability, T/C [9]: 44.2%
viability, T/C [10]: 46.7%
viability, T/C [11]: 47.5%
viability, T/C [12]: 3.26%
viability, T/C [13]: 45.1%
viability, T/C [14]: 42.1%
viability, T/C [15]: 43.6%
viability, T/C [16]: 45.2%
viability, T/C [17]: 42.4%
viability, T/C [18]: 3.28%
viability, T/C [19]: 41.9%
viability, T/C [20]: 39.6%
viability, T/C [21]: 41.1%
viability, T/C [22]: 37.8%
viability, T/C [23]: 36.2%
viability, T/C [24]: 2.99%
viability, T/C [25]: 39.8%
viability, T/C [26]: 38.9%
viability, T/C [27]: 36.1%
viability, T/C [28]: 37.4%
viability, T/C [29]: 34.8%
viability, T/C [30]: 2.9%
viability, T/C [31]: 37.8%
viability, T/C [32]: 36%
viability, T/C [33]: 33.4%
viability, T/C [34]: 34.6%
viability, T/C [35]: 34.9%
viability, T/C [36]: 2.74%
